According to patent publication US20170022171A1, “2,5-DISUBSTITUTED CYCLOPENTANECARBOXYLIC ACIDS AND THEIR USE” (Bayer Pharma Aktiengesellschaft, priority 2014, published 2017):

Legend:
Type in all cases: biochemical
MMP-1 = target: T1, MMP-1 (Homo sapiens, UniProt P03956); assay: In vitro MMP-1 inhibition test
T1 construct: purchased R&D Systems 901-MP
T1 sequence (P03956 100-469): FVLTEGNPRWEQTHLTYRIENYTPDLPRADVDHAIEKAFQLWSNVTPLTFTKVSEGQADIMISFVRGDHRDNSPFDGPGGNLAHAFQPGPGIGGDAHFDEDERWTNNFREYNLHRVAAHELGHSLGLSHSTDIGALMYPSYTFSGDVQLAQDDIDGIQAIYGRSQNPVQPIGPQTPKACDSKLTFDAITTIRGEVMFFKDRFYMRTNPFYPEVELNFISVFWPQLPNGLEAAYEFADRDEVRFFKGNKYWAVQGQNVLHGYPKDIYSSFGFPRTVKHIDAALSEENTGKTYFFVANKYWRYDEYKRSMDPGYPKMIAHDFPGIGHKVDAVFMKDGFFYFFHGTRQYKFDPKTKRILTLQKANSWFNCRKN
Summary of the method: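 APMA-activated recombinant enzyme (e.g. 2 nM final) in 50 mM Tris/HCl pH 7.5, 10 mM CaCl2, 150 mM NaCl, 0.05% Brij-35 with compound in DMSO (e.g. 1 nM–30 μM). Quenched Mca-Pro-Leu-Gly-Leu-Dpa(Dnp)-Ala-Arg-NH2 substrate (e.g. 10 μM) started reaction; fluorescence (ex 320/em 410 nm) followed e.g. 120 min at 32° C; IC50 at 50% signal.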

MMP-3 = target: T2, MMP-3 (Homo sapiens, UniProt P08254); assay: In vitro MMP-3 inhibition test
T2 construct: purchased R&D Systems 513-MP
T2 sequence (P08254 100-477): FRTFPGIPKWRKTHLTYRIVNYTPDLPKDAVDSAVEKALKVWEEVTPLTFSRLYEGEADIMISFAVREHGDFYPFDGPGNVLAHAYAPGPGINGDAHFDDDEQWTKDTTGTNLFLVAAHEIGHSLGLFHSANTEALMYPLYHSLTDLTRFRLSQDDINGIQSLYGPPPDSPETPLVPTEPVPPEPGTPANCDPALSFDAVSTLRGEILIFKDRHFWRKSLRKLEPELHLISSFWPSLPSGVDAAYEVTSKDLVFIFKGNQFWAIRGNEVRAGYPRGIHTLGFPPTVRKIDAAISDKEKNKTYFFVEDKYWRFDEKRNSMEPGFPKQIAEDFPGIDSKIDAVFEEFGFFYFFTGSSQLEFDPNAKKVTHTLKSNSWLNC
Summary of the method: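 APMA-activated recombinant MMP-3 (e.g. 2 nM final) preincubated with compound in 50 mM Tris/HCl pH 7.5, 10 mM CaCl2, 150 mM NaCl, 0.05% Brij-35; quenched Mca/Dnp peptide substrate (e.g. 10 μM) started the reaction. Fluorescence (ex 320/em 410 nm) followed e.g. 120 min at 32° C; IC50 at 50% signal.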

MMP-16 = target: T3, MMP-16 (Homo sapiens, UniProt P51512); assay: In vitro MMP-16 inhibition test
T3 construct: purchased R&D Systems 1785-MP
T3 sequence (P51512 120-564 limits assumed): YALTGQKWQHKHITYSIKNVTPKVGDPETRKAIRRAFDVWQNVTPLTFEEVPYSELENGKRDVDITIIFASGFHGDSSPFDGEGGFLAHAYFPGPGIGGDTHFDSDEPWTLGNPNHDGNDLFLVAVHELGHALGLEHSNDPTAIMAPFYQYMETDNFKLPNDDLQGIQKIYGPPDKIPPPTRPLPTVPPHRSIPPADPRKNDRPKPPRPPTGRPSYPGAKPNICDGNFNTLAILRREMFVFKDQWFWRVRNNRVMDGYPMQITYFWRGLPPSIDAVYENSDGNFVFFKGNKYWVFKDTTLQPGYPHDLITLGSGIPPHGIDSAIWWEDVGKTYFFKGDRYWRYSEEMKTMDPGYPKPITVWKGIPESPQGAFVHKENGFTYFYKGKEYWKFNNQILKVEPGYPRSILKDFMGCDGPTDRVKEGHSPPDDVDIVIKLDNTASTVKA
Summary of the method: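 Furin-activated recombinant MMP-16 (e.g. 1 nM) in 50 mM Tris/HCl pH 7.5, 10 mM CaCl2, 150 mM NaCl and 0.05% Brij-35 received compound in DMSO (e.g. 1 nM–30 μM), then 5 μM Mca-Lys-Pro-Leu-Gly-Leu-Dpa(Dnp)-Ala-Arg-NH2. Fluorescence (ex 320/em 410 nm) was followed, e.g. over 120 min at 32 °C. IC50 is the concentration halving the signal.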

Row | IC50 (MMP-1) [µM] | IC50 (MMP-3) [µM] | IC50 (MMP-16) [µM] | SMILES
1 | 8.4 | 0.3 | 2.3 | CCCCCCOc1ccc(C(=O)[C@@H]2CC[C@H](Cn3nnc4ccc(C(F)(F)F)cc4c3=O)[C@H]2C(=O)O)cc1 (single isomer, unassigned) [Example 58, (+)-(1RS,2RS,5SR)-2-[4-(Hexyloxy)benzoyl]-5-{[4-oxo-6-(trifluoromethyl)-1,2,3-benzotriazin-3(4H)-yl]methyl}cyclopentanecarboxylic acid]
2 | 6.3 | 0.38 | 4.6 | O=C(O)[C@@H]1[C@@H](Cn2nnc3ccc(C(F)(F)F)cc3c2=O)CC[C@H]1C(=O)c1ccc(OCCC2CCCCC2)cc1 (single isomer, unassigned) [Example 52, (+)-(1RS,2RS,5SR)-2-[4-(2-Cyclohexylethoxy)benzoyl]-5-{[4-oxo-6-(trifluoromethyl)-1,2,3-benzotriazin-3(4H)-yl]methyl}cyclopentanecarboxylic acid]
